Measurements taken from patent US10538230B2, “Thiol based resin system for removal of copper ions from hydraulic fluid” (THE BOEING COMPANY, priority 2015, dated 2020).

Test: Removal of Cu[II] ions from hydraulic fluid with thiol compounds of structure (2), ICP measurement
Details: Skydrol LD-4 with about 10 ppm copper (II) acetylacetate; for [Cu] T = 24 hr.: after 24 hr. contact with equimolar amount of thiol compound; for [Cu] T = 0 hr.: before addition of the thiol compound
Method: Copper (II) acetylacetate is added to a sample of hydraulic fluid (e.g., Skydrol® LD-4 (Eastman Chemical Co. (Kingsport, Tenn. [US])), though any phosphate ester hydraulic fluid is suitable) to provide a final concentration of about 10 ppm copper (II) acetylacetate in the fluid. The amount of copper (II) is measured in the solution using an Inductively Coupled Plasma Spectrometer (ICP). An equimolar amount of a thiol compound of structure (2) is added to a portion of the copper (II) acetate-hydraulic fluid solution and the solution-mixture is mixed using a vortex mixer for 1.5 minutes. The solution-mixture is allowed to stand for 24 hours and the copper (II) content present in the solution is measured using an Inductively Coupled Plasma Spectrometer (ICP). The amount of copper sequestered or complexed by the thiol compound is determined from the difference in the copper (II) concentrations before and after addition of the thiol compound.
Table 5 presents results of Copper (II) content in aliquots of hydraulic fluid (Skydrol® LD-4) containing copper (II) acetylacetate to a final concentration of about 10 ppm copper (II) acetylacetate and contacted with an equimolar amount of the indicated thiol compounds for 24 hours.

Row | Compound | [Cu] T = 24 hr. [ppm] | [Cu] T = 0 hr. [ppm]
1 | Sc1nnc(SSc2nnc(S)s2)s1 [II, 5,5′-Dithiobis(1,3,4-Thiadiazole-2(3H)-thione)] | 6.4 | 11.1
2 | Sc1nnc(S)s1 [I, 1,3,4-Thiadiazole-2,5-dithiol] | 7.9 | 10.8
